No end group written: not given here.
How the values were obtained:
δPKC [1] = molecular target: T1, δPKC (Mus musculus, UniProt P28867); assay: MARCKS phosphorylation in wild-type fibroblasts (Western blot); assay type: cell-based; details: 20% serum, peptides conjugated to TAT47-57, relative to control peptide
T1 construct: endogenous in cells; host or cells: primary fibroblasts from wild-type mice
Text: (§1) Fibroblasts were isolated from wild-type or δPKC knockout mice (provided by Dr. Robert Messing, Gallo Center, UCSF) as previously described (Disatnik et al., 2004, J. Cell Sci., 117:4469-4479) and maintained in 20% fetal bovine serum.
(§2) Phosphorylation of myristoylated alanine-rich C kinase substrate (MARCKS), a ubiquitous PKC substrate, was monitored by Western blot of total cell lysates, using anti-phosphorylated MARCKS (Cell Signaling, Danvers, Mass.). Anti-MARCKS and anti-δPKC antibodies were obtained from Santa Cruz Biotechnology (Santa Cruz Biotechnology, CA, USA).
(§3) The ΨPDK sequence is found both in PDK and in the PDK-cognate protein, δPKC. It was therefore predicted that ΨPDK mimics inhibitory intra-molecular interaction, and, similar to ΨδRACK, ΨPDK should compete with the inhibitory interaction of PDK and δPKC, and increase δPKC-mediated functions (FIG. 1A). Phosphorylation of myristoylated alanine-rich C-kinase substrate (MARCKS) was used as a marker of PKC activity (Disatnik et al., 2004, J. Cell. Sci., 117:4469-4479). […] To determine the selectivity of the peptides for δPKC, fibroblasts derived from δPKC knock-out mice were also used.

[2] = test system: fibroblasts derived from δPKC knock-out mice; assay: MARCKS phosphorylation in fibroblasts from δPKC knock-out mice; assay type: cell-based, mouse; details: fibroblasts lacking δPKC
Text: as §1, §2, §3

δPKC [3] = molecular target: T2, δPKC (Rattus norvegicus, UniProt P09215); assay: δPKC translocation into mitochondria in intact hearts (ex vivo I/R)
T2 construct: from tissue; host or cells: rat heart (ex vivo ischemia/reperfusion), mitochondrial fraction
Experimental: (§4) An ex vivo model of acute ischemic heart damage was used, which involves a 30 min equilibration period, followed by 30 min of global ischemia, which in turn is followed by 60 min of reperfusion. The hearts were perfused with 1 μM TAT or TAT-conjugated peptide. Normoxic control hearts were subjected to 90 min perfusion in the absence of ischemia. Coronary effluent was collected to determine creatine phosphokinase (CPK) release during the first 30 min of the reperfusion period. At the end of the reperfusion period, hearts were sliced into 1-mm-thick transverse sections and incubated in triphenyltetrazolium chloride solution (TTC, 1% in phosphate buffer, pH 7.4) at 37° C. for 15 min. Infarct size was expressed as a percentage of the risk zone (equivalent to total LV muscle mass) (methods described in Brandman et al., 2007, J. Biol. Chem., 282:4113-4123; Inagaki et al., 2003, Circulation, 108:869-875).
Rat hearts were homogenized in a buffer containing 210 mM mannitol, 70 mM sucrose, 5 mM MOPS and 1 mM EDTA followed by isolation of the mitochondria fraction (described in Churchill et al., 2008, J. Mol. Cell. Cardiol., 46:278-284) and identified by the presence of VDAC (MitoSciences, Eugene, Oreg., USA). The level of phosphorylated and unphosphorylated JNK1/2 was analyzed in the total fraction using respective specific antibodies (Cell Signaling, Danvers, Mass. and Santa Cruz Biotechnology, CA, USA). […]
Phosphorylation of the mitochondrial PDK by δPKC occurs only following myocardial infarction Under these conditions, δPKC translocates into the mitochondria (Churchill et al., 2005, Circ. Res., 97:78-85) where it has access to PDK. It was therefore first determined whether ΨPDK peptide affects δPKC translocation into the mitochondria. […] However, similar to the mitochondrial matrix protein, aldehyde dehydrogenase (ALDH2), the majority of δPKC was insensitive to proteolysis by PK (FIG. 4C; quantitated in FIG. 4D).

PDK2 = assay: 2-D IEF phosphorylation of PDK2 in hearts after I/R; design: species or system rat; details: cardiac I/R
Experimental: as §4, with “108:869-875). […]” for “108:869-875).”
As described above, δPKC phosphorylation of PDK following cardiac ischemia and reperfusion leads to the phosphorylation and a decline in the activity of pyruvate dehydrogenase (PDH) (Churchill et al., 2005, Circ. Res., 97:78-85). […] Since ΨPDK is derived from the PDK homologous sequence in δPKC, it was next determined whether PDK phosphorylation is affected by ΨPDK treatment.

ALDH2 = assay: 2-D IEF phosphorylation of ALDH2 in hearts after I/R; design: species or system rat; details: cardiac I/R
Experimental: as §4
2-D IEF/SDS polyacrylamide gel electrophoresis using rat heart samples was performed as previously described (Chen et al., 2008, Science, 321:1493-1495). 10% SDS gel electrophoresis and Western blotting were carried out by standard methods using PDK2 c-term rabbit (Abgent, Calif., USA), PDH subunit E1 alpha monoclonal (Invitrogen, Calif., USA) and ALDH2 goat (Santa Cruz Biotechnology, CA, USA) antibodies. […]

MARCKS = MARCKS phosphorylation in hearts subjected to I/R; design: species or system rat; details: vs control peptide
Experimental: as §4

Drp1 = Drp1 phosphorylation in hearts subjected to I/R; design: species or system rat
Experimental: as §4

T2 sequence (P09215 whole entry, the tested form may be a part): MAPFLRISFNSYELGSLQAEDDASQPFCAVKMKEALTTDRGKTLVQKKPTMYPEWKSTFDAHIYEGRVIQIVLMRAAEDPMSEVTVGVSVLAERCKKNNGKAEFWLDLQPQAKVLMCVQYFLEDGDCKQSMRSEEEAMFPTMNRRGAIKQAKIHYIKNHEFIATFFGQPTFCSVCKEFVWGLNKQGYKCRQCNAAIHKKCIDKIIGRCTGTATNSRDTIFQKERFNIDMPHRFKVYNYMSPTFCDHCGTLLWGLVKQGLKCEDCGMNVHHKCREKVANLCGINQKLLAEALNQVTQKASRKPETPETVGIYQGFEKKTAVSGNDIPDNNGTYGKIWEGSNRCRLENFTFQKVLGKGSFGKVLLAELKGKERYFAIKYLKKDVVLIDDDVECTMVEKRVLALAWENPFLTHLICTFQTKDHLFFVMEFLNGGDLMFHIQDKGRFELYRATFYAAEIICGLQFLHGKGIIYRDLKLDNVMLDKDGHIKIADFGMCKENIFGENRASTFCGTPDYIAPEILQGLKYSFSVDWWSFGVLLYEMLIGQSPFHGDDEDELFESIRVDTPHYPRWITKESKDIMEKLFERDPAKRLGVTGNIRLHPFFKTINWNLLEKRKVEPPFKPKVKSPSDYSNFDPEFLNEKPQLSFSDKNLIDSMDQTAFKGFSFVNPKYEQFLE
T1 sequence (P28867 whole entry): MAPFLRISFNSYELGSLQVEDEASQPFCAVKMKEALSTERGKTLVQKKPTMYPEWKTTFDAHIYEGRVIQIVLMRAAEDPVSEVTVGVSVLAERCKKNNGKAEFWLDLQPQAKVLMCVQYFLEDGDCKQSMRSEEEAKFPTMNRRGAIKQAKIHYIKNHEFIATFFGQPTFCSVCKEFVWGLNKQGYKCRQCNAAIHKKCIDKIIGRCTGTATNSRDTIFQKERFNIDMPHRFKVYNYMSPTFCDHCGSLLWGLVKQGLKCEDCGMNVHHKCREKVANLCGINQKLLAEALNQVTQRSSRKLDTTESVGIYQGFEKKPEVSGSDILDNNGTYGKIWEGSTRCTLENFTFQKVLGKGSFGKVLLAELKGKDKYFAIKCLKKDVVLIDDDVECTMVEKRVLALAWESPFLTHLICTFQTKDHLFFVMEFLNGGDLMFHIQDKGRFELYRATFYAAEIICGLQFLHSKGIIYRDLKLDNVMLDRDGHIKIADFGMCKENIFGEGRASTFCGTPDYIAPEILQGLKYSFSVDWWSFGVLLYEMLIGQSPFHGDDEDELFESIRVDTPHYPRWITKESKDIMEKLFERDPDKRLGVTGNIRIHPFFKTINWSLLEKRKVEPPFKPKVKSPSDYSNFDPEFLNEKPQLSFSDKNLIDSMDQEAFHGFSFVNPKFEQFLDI

ALSTER (not fully specified (C-terminus); also: TAT47-57 conjugated via disulfide) [ΨPDK, for cells and hearts conjugated to TAT47-57 via disulfide bond]
MARCKS phosphorylation (δPKC [1]): increased MARCKS phosphorylation | MARCKS phosphorylation [2]: did not affect MARCKS phosphorylation | δPKC entry into the mitochondria (proteinase K resistance) (δPKC [3]; following I/R): increased I/R-induced δPKC entry into the mitochondria | δPKC association with the mitochondria (δPKC [3]; following I/R, vs control peptide): two-fold increase | δPKC translocation to the mitochondria (δPKC [3]; normoxic condition): did not induce δPKC translocation to the mitochondria | phosphorylation of PDK2 (PDK2): did not occur | ALDH2 phosphorylation (ALDH2): neither ΨPDK nor δV1-1 affected ALDH2 phosphorylation | I/R-induced MARCKS phosphorylation (MARCKS): an increase in I/R-induced MARCKS phosphorylation | Drp1 phosphorylation (Drp1): caused an increase of Drp1 phosphorylation
